Measurements reported in ChEMBL document CHEMBL3217615, “Novel 3,5-bis(arylidiene)-4-piperidone based monocarbonyl analogs of curcumin: anticancer activity evaluation and mode of action study” (2014).

Legend:
Assay type in all cases: functional
A549 [1] = experiment: Growth inhibition of human A549/ATCC cells after 48 hrs by sulforhodamine B assay; conditions: A549, 48 h; for CC50: read-out: LC50 (the source's name)
NCI-H460 [2] = experiment: Growth inhibition of human NCI-H460 cells assessed as cell growth at 10^-5 M after 48 hrs by sulforhodamine B assay; conditions: NCI-H460, 48 h, read-out: Activity
[3] = Growth inhibition of human OVCAR3 cells assessed as cell growth at 10^-5 M after 48 hrs by sulforhodamine B assay; conditions: OVCAR-3, 48 h, read-out: Activity
CAKI-1 [4] = experiment: Growth inhibition of human CAKI-1 cells assessed as cell growth at 10^-7 M after 48 hrs by sulforhodamine B assay; conditions: CAKI-1, 48 h, read-out: Activity
[5] = Growth inhibition of human NCI-ADR-RES cells assessed as cell growth at 10^-5 M after 48 hrs by sulforhodamine B assay; conditions: read-out: Activity
Malme-3M [6] = experiment: Growth inhibition of human MALME-3M cells assessed as cell growth at 10^-5 M after 48 hrs by sulforhodamine B assay; conditions: read-out: Activity
[7] = Growth inhibition of human UACC62 cells after 48 hrs by sulforhodamine B assay; conditions: UACC-62, 48 h; for CC50: read-out: LC50 (the source's name)
SK-OV-3 [8] = experiment: Growth inhibition of human SKOV3 cells assessed as cell growth at 10^-7 M after 48 hrs by sulforhodamine B assay; conditions: SK-OV-3, 48 h, read-out: Activity
SNB-19 [9] = experiment: Growth inhibition of human SNB19 cells after 48 hrs by sulforhodamine B assay; conditions: SNB-19, 48 h; for CC50: read-out: LC50 (the source's name)
SNB-75 = experiment: Growth inhibition of human SNB75 cells assessed as cell growth at 10^-5 M after 48 hrs by sulforhodamine B assay; conditions: SNB-75, 48 h, read-out: Activity
SW-620 = experiment: Growth inhibition of human SW620 cells assessed as cell growth at 10^-5 M after 48 hrs by sulforhodamine B assay; conditions: SW-620, 48 h, read-out: Activity
ACHN = experiment: Growth inhibition of human ACHN cells after 48 hrs by sulforhodamine B assay; conditions: for CC50: read-out: LC50 (the source's name)
A549 [10] = experiment: Growth inhibition of human A549/ATCC cells assessed as cell growth at 10^-5 M after 48 hrs by sulforhodamine B assay; conditions: A549, 48 h, read-out: Activity
[11] = Growth inhibition of human SF539 cells assessed as cell growth at 10^-5 M after 48 hrs by sulforhodamine B assay; conditions: SF-539, 48 h, read-out: Activity
SK-OV-3 [12] = experiment: Growth inhibition of human SKOV3 cells after 48 hrs by sulforhodamine B assay; conditions: SK-OV-3, 48 h; for CC50: read-out: LC50 (the source's name)
[13] = Growth inhibition of human OVCAR8 cells assessed as cell growth at 10^-6 M after 48 hrs by sulforhodamine B assay; conditions: OVCAR-8, 48 h, read-out: Activity
HT-29 [14] = experiment: Growth inhibition of human HT-29 cells assessed as cell growth at 10^-5 M after 48 hrs by sulforhodamine B assay; conditions: HT-29, 48 h, read-out: Activity
[15] = Growth inhibition of human RXF393 cells assessed as cell growth at 10^-5 M after 48 hrs by sulforhodamine B assay; conditions: RXF 393, 48 h, read-out: Activity
SK-OV-3 [16] = experiment: Growth inhibition of human SKOV3 cells assessed as cell growth at 10^-4 M after 48 hrs by sulforhodamine B assay; conditions: SK-OV-3, 48 h, read-out: Activity
HT-29 [17] = experiment: Growth inhibition of human HT-29 cells assessed as cell growth at 10^-6 M after 48 hrs by sulforhodamine B assay; conditions: HT-29, 48 h, read-out: Activity
[18] = Growth inhibition of human LOXIMVI cells assessed as cell growth at 10^-8 M after 48 hrs by sulforhodamine B assay; conditions: LOX IMVI; for growth at 0.01 µM: read-out: Activity; for TGI: read-out: pTGI (converted)
NCI-H23 = experiment: Growth inhibition of human NCI-H23 cells assessed as cell growth at 10^-5 M after 48 hrs by sulforhodamine B assay; conditions: NCI-H23, 48 h, read-out: Activity
KM12 = experiment: Growth inhibition of human KM12 cells assessed as cell growth at 10^-5 M after 48 hrs by sulforhodamine B assay; conditions: KM12, 48 h, read-out: Activity
[19] = Growth inhibition of human MOLT4 cells assessed as cell growth at 10^-4 M after 48 hrs by sulforhodamine B assay; conditions: MOLT-4, 48 h, read-out: Activity
HCT-116 [20] = experiment: Growth inhibition of human HCT116 cells assessed as cell growth at 10^-7 M after 48 hrs by sulforhodamine B assay; conditions: HCT-116, 48 h, read-out: Activity
PC-3 = experiment: Growth inhibition of human PC3 cells assessed as cell growth at 10^-5 M after 48 hrs by sulforhodamine B assay; conditions: PC-3, 48 h, read-out: Activity
CAKI-1 [21] = experiment: Growth inhibition of human CAKI-1 cells assessed as cell growth at 10^-5 M after 48 hrs by sulforhodamine B assay; conditions: CAKI-1, 48 h, read-out: Activity
786-0 = experiment: Growth inhibition of human 786-0 cells assessed as cell growth at 10^-5 M after 48 hrs by sulforhodamine B assay; conditions: 786-0, 48 h, read-out: Activity
Malme-3M [22] = experiment: Growth inhibition of human MALME-3M cells assessed as cell growth at 10^-4 M after 48 hrs by sulforhodamine B assay; conditions: read-out: Activity
NCI-H460 [23] = experiment: Growth inhibition of human NCI-H460 cells assessed as cell growth at 10^-6 M after 48 hrs by sulforhodamine B assay; conditions: NCI-H460, 48 h, read-out: Activity
[24] = Growth inhibition of human HCC2998 cells assessed as cell growth at 10^-5 M after 48 hrs by sulforhodamine B assay; conditions: HCC 2998, 48 h, read-out: Activity
[25] = Growth inhibition of human BT549 cells assessed as cell growth at 10^-4 M after 48 hrs by sulforhodamine B assay; conditions: BT-549, 48 h, read-out: Activity
TK-10 = experiment: Growth inhibition of human TK10 cells assessed as cell growth at 10^-5 M after 48 hrs by sulforhodamine B assay; conditions: TK-10, 48 h, read-out: Activity
SNB-19 [26] = experiment: Growth inhibition of human SNB19 cells assessed as cell growth at 10^-6 M after 48 hrs by sulforhodamine B assay; conditions: SNB-19, 48 h, read-out: Activity
HCT-116 [27] = experiment: Growth inhibition of human HCT116 cells assessed as cell growth at 10^-5 M after 48 hrs by sulforhodamine B assay; conditions: HCT-116, 48 h, read-out: Activity
HCT-116 [28] = experiment: Growth inhibition of human HCT116 cells assessed as cell growth at 10^-6 M after 48 hrs by sulforhodamine B assay; conditions: HCT-116, 48 h, read-out: Activity
[29] = Growth inhibition of human MOLT4 cells assessed as cell growth at 10^-5 M after 48 hrs by sulforhodamine B assay; conditions: MOLT-4, 48 h, read-out: Activity

Compound `Cc1ccc(S(=O)(=O)N2C/C(=C\c3cc(F)cc(F)c3)C(=O)/C(=C/c3cc(F)cc(F)c3)C2)cc1` has a GI50 (A549 [1]) of 2860 nM, a TGI (A549 [1]) of 14600 nM and a CC50 (A549 [1]) of over 100000 nM. The growth at 10 µM (NCI-H460 [2]) was -53%, the growth at 10 µM [3] was -84% and the growth at 0.1 µM (CAKI-1 [4]) was 94%. The growth at 10 µM [5] was 7.23%, the growth at 10 µM (Malme-3M [6]) was -75% and the GI50 [7] was 212 nM. The TGI [7] was 514 nM, the CC50 [7] was 1620 nM and the growth at 0.1 µM (SK-OV-3 [8]) was 106%. For the same compound, the GI50 (SNB-19 [9]) was 220 nM, the TGI (SNB-19 [9]) was 752 nM and the CC50 (SNB-19 [9]) was 2820 nM. It also gave a growth at 10 µM (SNB-75) of -41.6%, a growth at 10 µM (SW-620) of -79% and a GI50 (ACHN) of 246 nM. For the same compound, the TGI (ACHN) was 622 nM, the CC50 (ACHN) was 2390 nM and the growth at 10 µM (A549 [10]) was 7%. The growth at 10 µM [11] was -72%, the GI50 (SK-OV-3 [12]) was 1840 nM and the TGI (SK-OV-3 [12]) was 5620 nM. For the same compound, the CC50 (SK-OV-3 [12]) was 37200 nM, the growth at 1 µM [13] was 15% and the growth at 10 µM (HT-29 [14]) was -78%. The growth at 10 µM [15] was -88%, the growth at 100 µM (SK-OV-3 [16]) was -68% and the growth at 1 µM (HT-29 [17]) was -22%. It also gave a GI50 [18] of 174 nM, a growth at 0.01 µM [18] of 97% and a CC50 ([18]; read-out: pLC50 (the source's name) (converted)) of 661 nM. It also gave a TGI [18] of 339 nM, a growth at 10 µM (NCI-H23) of -33% and a growth at 10 µM (KM12) of -82%. For the same compound, the growth at 100 µM [19] was -27%, the growth at 0.1 µM (HCT-116 [20]) was 89% and the growth at 10 µM (PC-3) was -60.3%. The growth at 10 µM (CAKI-1 [21]) was -25%, the growth at 10 µM (786-0) was -87% and the growth at 100 µM (Malme-3M [22]) was -78%. It also gave a growth at 1 µM (NCI-H460 [23]) of 45%, a growth at 10 µM [24] of -89% and a growth at 100 µM [25] of -95%. It also gave a growth at 10 µM (TK-10) of -58%, a growth at 1 µM (SNB-19 [26]) of -12% and a growth at 10 µM (HCT-116 [27]) of -94%. It also gave a growth at 1 µM (HCT-116 [28]) of -32% and a growth at 10 µM [29] of -17%.
For `O=C1/C(=C/c2ccc(Cl)cc2Cl)CN(S(=O)(=O)c2ccccc2)C/C1=C\c1ccc(Cl)cc1Cl`, the GI50 (A549 [1]) was 277 nM, the TGI (A549 [1]) was 887 nM and the CC50 (A549 [1]) was over 100000 nM. The growth at 10 µM (NCI-H460 [2]) was -60%, the growth at 10 µM [3] was -67% and the growth at 0.1 µM (CAKI-1 [4]) was 92%. For the same compound, the growth at 10 µM [5] was 20.5%, the growth at 10 µM (Malme-3M [6]) was -21% and the GI50 [7] was 804 nM. For the same compound, the TGI [7] was 2310 nM, the CC50 [7] was 5810 nM and the growth at 0.1 µM (SK-OV-3 [8]) was 102%. It also gave a GI50 (SNB-19 [9]) of 313 nM, a TGI (SNB-19 [9]) of 2880 nM and a CC50 (SNB-19 [9]) of over 100000 nM. It also gave a growth at 10 µM (SNB-75) of -6%, a growth at 10 µM (SW-620) of -15.2% and a GI50 (ACHN) of 874 nM. The TGI (ACHN) was 4560 nM, the CC50 (ACHN) was over 100000 nM and the growth at 10 µM (A549 [10]) was -43%. It also gave a growth at 10 µM [11] of -54.1%, a GI50 (SK-OV-3 [12]) of 7950 nM and a TGI (SK-OV-3 [12]) of over 100000 nM. It also gave a CC50 (SK-OV-3 [12]) of over 100000 nM, a growth at 1 µM [13] of -2% and a growth at 10 µM (HT-29 [14]) of -27.5%. For the same compound, the growth at 10 µM [15] was -87%, the growth at 100 µM (SK-OV-3 [16]) was 24% and the growth at 1 µM (HT-29 [17]) was -8%. For the same compound, the GI50 [18] was 204 nM, the growth at 0.01 µM [18] was 95% and the TGI [18] was 513 nM. For the same compound, the growth at 10 µM (NCI-H23) was -37.6%, the growth at 10 µM (KM12) was -57.2% and the growth at 100 µM [19] was -11%. For the same compound, the growth at 0.1 µM (HCT-116 [20]) was 95%, the growth at 10 µM (PC-3) was -25% and the growth at 10 µM (CAKI-1 [21]) was -66.1%. The growth at 10 µM (786-0) was -91%, the growth at 100 µM (Malme-3M [22]) was 22% and the growth at 1 µM (NCI-H460 [23]) was -53%. The growth at 10 µM [24] was -83%, the growth at 100 µM [25] was -42% and the growth at 1 µM (SNB-19 [26]) was 10%. The growth at 10 µM (HCT-116 [27]) was -84%, the growth at 1 µM (HCT-116 [28]) was -56% and the growth at 10 µM [29] was -2%.
